In test [1] the target is T1, KRas WT (Homo sapiens, UniProt P01116).
T1 construct: Biotinylated KRas (corresponding to amino acids 1-169, produced at Accelegan Inc.); biotin (biotinylated); purchased Accelegan Inc
The test can be described thus: KRas binding assay, TR-FRET displacement of Cy5 labelled tracer. The following applies: 60-minute incubation at room temperature, 1% DMSO, pH 7.5. The method in brief: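 Biotinylated KRas (residues 1-169) was incubated with tracer, terbium-streptavidin and compound at 1% DMSO final in 50 mM HEPES pH 7.5 containing 5 mM MgCl2, 0.005% Tween-20 and 1 mM DTT. The plate was read after 60 min at room temperature, and percent-of-control data were fit to a 4-parameter IC50 equation.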
(In general: TR-FRET usually uses a lanthanide donor and a delayed reading to cut background.)

The target of test [2] is T2, KRas G12S (Homo sapiens, UniProt P01116, G12S).
T2 construct: Biotinylated KRas (corresponding to amino acids 1-169, produced at Accelegan Inc.); biotin (biotinylated); purchased Accelegan Inc
T2 sequence (P01116 1-169 isoform P01116-2 G12S): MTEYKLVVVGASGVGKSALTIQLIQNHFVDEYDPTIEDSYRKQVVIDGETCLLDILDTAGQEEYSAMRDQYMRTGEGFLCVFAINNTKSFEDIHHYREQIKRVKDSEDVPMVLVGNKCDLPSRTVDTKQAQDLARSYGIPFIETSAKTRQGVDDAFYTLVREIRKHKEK
The description is as above. The following applies: 60-minute incubation at room temperature, 1% DMSO, pH 7.5. The method, boiled down: (§1)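 Room-temperature incubation (60 min) of compound with biotinylated KRas 1-169, tracer and Tb-streptavidin preceded the TR-FRET read. Final DMSO was 1%; buffer pH 7.5. Percent-of-control values went into a 4-parameter equation to give IC50.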

In test [3] the target is T3, KRas G12C (Homo sapiens, UniProt P01116, G12C).
T3 construct: Biotinylated KRas (corresponding to amino acids 1-169, produced at Accelegan Inc.); biotin (biotinylated); purchased Accelegan Inc
T3 sequence (P01116 1-169 isoform P01116-2 G12C): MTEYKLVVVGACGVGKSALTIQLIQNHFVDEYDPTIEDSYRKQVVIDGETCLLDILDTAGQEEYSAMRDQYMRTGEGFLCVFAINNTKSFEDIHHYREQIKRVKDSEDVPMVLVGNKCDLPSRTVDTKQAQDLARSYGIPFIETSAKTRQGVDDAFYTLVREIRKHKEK
The test is described as above. The settings on record: 60-minute incubation at room temperature, 1% DMSO, pH 7.5. The method, boiled down: as §1

For test [4], the target named is T4, KRas-mediated phosphorylation of ERK in A549 cells (Homo sapiens, UniProt P01116, G12S).
T4 construct: pERK HTRF read-out
T4 sequence (P01116 1-188 isoform P01116-2 G12S): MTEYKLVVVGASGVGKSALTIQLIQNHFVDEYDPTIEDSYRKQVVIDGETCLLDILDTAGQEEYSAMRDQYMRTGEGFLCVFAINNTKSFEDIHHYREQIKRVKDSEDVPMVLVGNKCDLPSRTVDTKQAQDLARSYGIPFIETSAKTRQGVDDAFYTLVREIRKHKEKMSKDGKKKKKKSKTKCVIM
The test can be described thus: Inhibition of KRas-mediated phosphorylation of ERK (HTRF), A549 cells. It counts as cell-based. The settings on record: HTRF pERK, 3 h incubation.

Test [5] has as its target T5, KRas-mediated phosphorylation of ERK in MKN1 cells (Homo sapiens, UniProt P01116).
T5 construct: pERK HTRF read-out
The experiment in a line: Inhibition of KRas-mediated phosphorylation of ERK (HTRF), MKN1 cells. The test is classed as cell-based. The settings on record: MKN1 cells (KRas WT); HTRF pERK; 3 h incubation. How it is done: Inhibition of KRas Phosphorylation of ERK (HTRF) by Exemplary Compounds of Formula (Ia) or (Ib)
Cisbio HTRF Advanced pERK Assay Catalog #64AERPEH • Cells: MKN1, PSN1 • Procedure: • 1. Day 1: Seed 6,000 cells/well −25 μl/well in 384-well white solid bottom plate; RPM1_10% FBS. Incubate overnight at 37 °C/5% CO2. • 2.

The target in test [6] is T6, KRas-mediated phosphorylation of ERK in H358 cells (Homo sapiens, UniProt P01116, G12C).
T6 construct: pERK HTRF read-out
T6 sequence (P01116 1-188 isoform P01116-2 G12C): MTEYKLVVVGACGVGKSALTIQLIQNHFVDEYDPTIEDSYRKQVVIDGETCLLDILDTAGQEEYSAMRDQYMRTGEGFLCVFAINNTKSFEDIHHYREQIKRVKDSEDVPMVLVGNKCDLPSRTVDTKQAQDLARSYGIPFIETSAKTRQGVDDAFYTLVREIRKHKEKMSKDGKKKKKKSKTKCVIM
The experiment in a line: Inhibition of KRas-mediated phosphorylation of ERK (HTRF), H358 cells. It counts as cell-based. The following applies: HTRF pERK, 3 h incubation.

The record followed here is patent publication US20260356856A1, “KRAS G12S AND G12C INHIBITORS” (MIRATI THERAPEUTICS, INC., priority 2023, published 2026).

Usually IC50 stands for the point on the concentration scale where inhibition reaches its midpoint. A high value points to a need for much substance.

T5 sequence (P01116 1-188 isoform P01116-2): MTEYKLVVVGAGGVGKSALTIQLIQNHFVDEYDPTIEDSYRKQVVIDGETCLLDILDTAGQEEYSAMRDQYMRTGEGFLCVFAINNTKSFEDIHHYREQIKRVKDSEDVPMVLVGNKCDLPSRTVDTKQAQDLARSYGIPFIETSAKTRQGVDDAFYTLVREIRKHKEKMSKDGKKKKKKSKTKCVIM
T1 sequence (P01116 1-169 isoform P01116-2): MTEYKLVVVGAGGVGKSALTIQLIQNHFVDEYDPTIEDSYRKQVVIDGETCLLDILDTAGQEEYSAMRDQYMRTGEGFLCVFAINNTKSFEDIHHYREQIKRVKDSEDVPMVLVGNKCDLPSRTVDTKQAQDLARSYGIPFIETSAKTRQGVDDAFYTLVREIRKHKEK

`CN(C)Cc1ccn(C(=O)C2CCCN(c3nc(OC[C@@]45CCCN4C[C@H](F)C5)nc4c(F)c(-c5ccc(F)c6sc(N)c(C#N)c56)c(Cl)cc34)CC2)n1` (stereo partly drawn) [Example 205, 2-amino-4-(6-chloro-4-(4-(3-((dimethylamino)methyl)-1H-pyrazole-1-carbonyl)azepan-1-yl)-8-fluoro-2-(((2R,7aS)-2-fluorotetrahydro-1H-pyrrolizin-7a(5H)-yl)methoxy)quinazolin-7-yl)-7-fluorobenzo[b]thiophene-3-carbonitrile]: the IC50 in test [1] came out at 7 nM; in test [2], 4 nM; in test [3] it was 2 nM; in test [4] it was 25 nM; in test [5], 540 nM; in test [6], 59 nM.

In the case of `CC(C)C(=O)N(C)C(=O)C1CCN(c2nc(OC[C@@]34CCCN3C[C@H](F)C4)nc3c(F)c(-c4ccc(F)c5sc(N)c(C#N)c45)c(Cl)cc23)CC1` [Example 206, 1-(7-(2-amino-3-cyano-7-fluorobenzo[b]thiophen-4-yl)-6-chloro-8-fluoro-2-(((2R,7aS)-2-fluorotetrahydro-1H-pyrrolizin-7a(5H)-yl)methoxy)quinazolin-4-yl)-N-isobutyryl-N-methylpiperidine-4-carboxamide], the IC50 in test [1] is 8 nM; in test [2] it was 9 nM; in test [3], 7 nM; in test [4], 82 nM; in test [5], 26 nM; in test [6] it was 31 nM.

With `CCc1c(F)ccc2cc(O)cc(-c3ncc4c(N5CCC(C(=O)N(C)C(=O)COC)CC5)nc(OC[C@@]56CCCN5C[C@H](F)C6)nc4c3F)c12` [Example 209, 1-(7-(8-ethyl-7-fluoro-3-hydroxynaphthalen-1-yl)-8-fluoro-2-(((2R,7aS)-2-fluorotetrahydro-1H-pyrrolizin-7a(5H)-yl)methoxy)pyrido[4,3-d]pyrimidin-4-yl)-N-(2-methoxyacetyl)-N-methylpiperidine-4-carboxamide], the IC50 in test [1] was found to be 496 nM; in test [2], 165 nM; in test [3] it was 168 nM; in test [4], 281 nM; in test [5] it was 1110 nM; in test [6], 1460 nM.

Consider `CCc1c(F)ccc2cc(O)cc(-c3ncc4c(N5C[C@H]6C[C@@H](C(=O)n7ccc(C)n7)[C@H]6C5)nc(OC[C@@]56CCCN5C[C@H](F)C6)nc4c3F)c12` [Example 210, ((1S,5S,6R)-3-(7-(8-ethyl-7-fluoro-3-hydroxynaphthalen-1-yl)-8-fluoro-2-(((2R,7aS)-2-fluorotetrahydro-1H-pyrrolizin-7a(5H)-yl)methoxy)pyrido[4,3-d]pyrimidin-4-yl)-3-azabicyclo[3.2.0]heptan-6-yl)(3-methyl-1H-pyrazol-1-yl)methanone], for which the IC50 was 2730 nM in test [1]; 1290 nM in test [2]; 2250 nM in test [3]; 741 nM in test [4]; 5020 nM in test [5]; 8660 nM in test [6].

Regarding `CCc1c(F)ccc2cc(O)cc(-c3ncc4c(N5C[C@@H]6C[C@H](C(=O)n7ccc(C)n7)[C@@H]6C5)nc(OC[C@@]56CCCN5C[C@H](F)C6)nc4c3F)c12` [Example 211, ((1R,5R,6S)-3-(7-(8-ethyl-7-fluoro-3-hydroxynaphthalen-1-yl)-8-fluoro-2-(((2R,7aS)-2-fluorotetrahydro-1H-pyrrolizin-7a(5H)-yl)methoxy)pyrido[4,3-d]pyrimidin-4-yl)-3-azabicyclo[3.2.0]heptan-6-yl)(3-methyl-1H-pyrazol-1-yl)methanone], the IC50 in test [1] turned out to be 314 nM; in test [2], 15 nM; in test [3], 61 nM; in test [4] it was 23 nM; in test [5], 567 nM; in test [6] it was 518 nM.

`CCc1c(F)ccc2cc(O)cc(-c3ncc4c(N5CCC(C(=O)NC(C)=O)CC5)nc(OC[C@@]56CCCN5C[C@H](F)C6)nc4c3F)c12` [Example 212, N-acetyl-1-(7-(8-ethyl-7-fluoro-3-hydroxynaphthalen-1-yl)-8-fluoro-2-(((2R,7aS)-2-fluorotetrahydro-1H-pyrrolizin-7a(5H)-yl)methoxy)pyrido[4,3-d]pyrimidin-4-yl)piperidine-4-carboxamide]: the IC50 in test [1] was 165 nM; in test [2], 371 nM; in test [3], 623 nM; in test [4], greater than 10000 nM; in test [5], 868 nM; in test [6], 4600 nM.

`CN(CCNC(=O)n1nccn1)c1nc(OC[C@@]23CCCN2C[C@H](F)C3)nc2c(F)c(-c3ccc(F)c4sc(N)c(C#N)c34)c(Cl)cc12` [Example 213, N-(2-((7-(2-amino-3-cyano-7-fluorobenzo[b]thiophen-4-yl)-6-chloro-8-fluoro-2-(((2R,7aS)-2-fluorotetrahydro-1H-pyrrolizin-7a(5H)-yl)methoxy)quinazolin-4-yl)(methyl)amino)ethyl)-2H-1,2,3-triazole-2-carboxamide]: the half-maximal inhibitory concentration (IC50) was 8 nM in test [1]; 5 nM in test [2]; less than 2 nM in test [3]; 1180 nM in test [4]; 387 nM in test [5]; 10 nM in test [6].

Turning to `CN(CCCC(=O)Nc1ccccn1)c1nc(OC[C@@]23CCCN2C[C@H](F)C3)nc2c(F)c(-c3ccc(F)c4sc(N)c(C#N)c34)c(Cl)cc12` [Example 214, 4-((7-(2-amino-3-cyano-7-fluorobenzo[b]thiophen-4-yl)-6-chloro-8-fluoro-2-(((2R,7aS)-2-fluorotetrahydro-1H-pyrrolizin-7a(5H)-yl)methoxy)quinazolin-4-yl)(methyl)amino)-N-(pyridin-2-yl)butanamide], the IC50 in test [1] amounted to 14 nM; in test [2], 13 nM; in test [3], 8 nM; in test [4] it was 661 nM; in test [5], 120 nM; in test [6], 93 nM.

Regarding `Cc1ccn(C(=O)C2CCCN(c3nc(OC[C@@]45CCCN4C[C@H](F)C5)nc4c(F)c(-c5csc6ccc(N)nc56)c(Cl)cc34)CC2)n1` (stereo partly drawn) [Example 215, (1-(7-(5-aminothieno[3,2-b]pyridin-3-yl)-6-chloro-8-fluoro-2-(((2R,7aS)-2-fluorotetrahydro-1H-pyrrolizin-7a(5H)-yl)methoxy)quinazolin-4-yl)azepan-4-yl)(3-methyl-1H-pyrazol-1-yl)methanone], the IC50 is 11400 nM in test [1]; 169 nM in test [2]; 2400 nM in test [3]; 242 nM in test [4]; 3920 nM in test [5]; greater than 10000 nM in test [6].

Consider `N#Cc1c(N)sc2c(F)ccc(-c3c(Cl)cc4c(N5CCC[C@H](C(=O)n6ccc(C7CC7)n6)CC5)nc(OC[C@@]56CCCN5C[C@H](F)C6)nc4c3F)c12` [Example 216, 2-amino-4-(6-chloro-4-((S)-4-(3-cyclopropyl-1H-pyrazole-1-carbonyl)azepan-1-yl)-8-fluoro-2-(((2R,7aS)-2-fluorotetrahydro-1H-pyrrolizin-7a(5H)-yl)methoxy)quinazolin-7-yl)-7-fluorobenzo[b]thiophene-3-carbonitrile], for which the concentration for half-maximal inhibition (IC50) in test [1] came to 22 nM; in test [2], 3 nM; in test [3], 4 nM; in test [4] it was 2 nM; in test [5] it was 71 nM; in test [6] it was 5 nM.

Take `COC(=O)CCCN(C)c1nc(OC[C@@]23CCCN2C[C@H](F)C3)nc2c(F)c(-c3ccc(F)c4sc(N)c(C#N)c34)c(Cl)cc12` [Example 217, methyl 4-((7-(2-amino-3-cyano-7-fluorobenzo[b]thiophen-4-yl)-6-chloro-8-fluoro-2-(((2R,7aS)-2-fluorotetrahydro-1H-pyrrolizin-7a(5H)-yl)methoxy)quinazolin-4-yl)(methyl)amino)butanoate]: the IC50 in test [1] was found to be 9 nM; in test [2], 7 nM; in test [3], 5 nM; in test [4], 6880 nM; in test [5] it was 763 nM; in test [6], 296 nM.

In the case of `CN(CCCC(=O)Oc1ccccc1F)c1nc(OC[C@@]23CCCN2C[C@H](F)C3)nc2c(F)c(-c3ccc(F)c4sc(N)c(C#N)c34)c(Cl)cc12` [Example 218, 2-fluorophenyl 4-((7-(2-amino-3-cyano-7-fluorobenzo[b]thiophen-4-yl)-6-chloro-8-fluoro-2-(((2R,7aS)-2-fluorotetrahydro-1H-pyrrolizin-7a(5H)-yl)methoxy)quinazolin-4-yl)(methyl)amino)butanoate], the IC50 amounted to 83 nM in test [1]; 16 nM in test [2]; 3 nM in test [3]; 175 nM in test [4]; 322 nM in test [5]; 15 nM in test [6].
